According to patent publication US20240166645A1, “PYRIDOPYRIMIDINONE DERIVATIVE, PREPARATION METHOD THEREFOR, AND USE THEREOF” (Wuhan Humanwell Innovative Drug Research and Development …, priority 2021, published 2024):
Where two headings read alike, the source gives them in different places.

How the values were obtained:
[1] = Plasma protein binding by equilibrium dialysis, mouse plasma; format: in vitro ADME; conditions: 37° C., read-out: Free fraction in plasma, Mouse (%)
Procedure: Plasma protein binding rate of compounds was detected by equilibrium dialysis (HTDialysis, HTD 96b). The compound was prepared into a […] stock solution with DMSO, and then 25-fold diluted with 0.05 M sodium phosphate buffer as a working solution. A blank 96-well plate was taken and preloaded with 380 μL of plasma per well. The plasma was then added with the working solution at 20 μL/well and mixed well, with the compound at a final concentration of 1 μM, containing 0.2% DMSO per well.
100 μL of 0.05 M sodium phosphate buffer was added to the reception-side of each dialysis chamber (HTD 96b), and then 100 μL of plasma containing the compound was added to the supply-side. The dialysis chamber was covered with a plastic lid, shaken and incubated at 37° C. for 5 h.
After incubation, 25 μL of samples were taken from each of the supply-side and the reception-side of the dialysis chamber and placed in the blank 96-well plate. An equal volume of plasma was added to each of the supply-side samples while an equal volume of 0.05 M sodium phosphate buffer was added to each of the reception-side samples and mixed well. The 96-well plate was added with an acetonitrile solution containing internal standard at 200 μL per well, vortexed and shaken at 600 rpm for 10 min, and centrifuged at 5594 g for 15 min (Thermo Multifuge×3R). 50 μL of the supernatant was then transferred to a new 96-well plate, and the samples were mixed with 50 μL of ultra-pure water for LC-MS/MS analysis.
Plasma protein binding rate and free fraction were calculated using the following formulas: % binding rate=100×([supply-side concentration]5h−[reception-side concentration]5h)/[supply-side concentration]5h. % free fraction=100−% binding rate.

[2] = target: CYP3A4 (Homo sapiens (Human), UniProt P08684); experiment: Inhibition test on cytochrome P450 subtype CYP3A4; format: in vitro ADME; conditions: compound 10 μM, human liver microsomes
Sequence of CYP3A4 (P08684 whole entry): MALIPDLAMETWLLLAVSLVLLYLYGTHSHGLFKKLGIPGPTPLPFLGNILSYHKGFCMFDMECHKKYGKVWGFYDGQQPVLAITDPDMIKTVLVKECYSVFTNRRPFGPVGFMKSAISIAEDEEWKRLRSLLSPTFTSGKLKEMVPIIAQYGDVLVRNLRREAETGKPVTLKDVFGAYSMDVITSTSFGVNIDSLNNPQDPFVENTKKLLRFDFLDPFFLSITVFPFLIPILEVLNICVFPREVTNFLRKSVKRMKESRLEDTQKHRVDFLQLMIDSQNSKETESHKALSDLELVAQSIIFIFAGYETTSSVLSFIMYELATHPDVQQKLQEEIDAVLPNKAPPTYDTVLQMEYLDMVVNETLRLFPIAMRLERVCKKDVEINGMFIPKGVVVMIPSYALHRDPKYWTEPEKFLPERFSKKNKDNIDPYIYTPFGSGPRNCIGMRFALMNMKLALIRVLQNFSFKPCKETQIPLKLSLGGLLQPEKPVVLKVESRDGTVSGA
Procedure: The inhibitory potential of compounds on cytochrome P450 (CYP450) subtype CYP3A4 (two substrates of midazolam and testosterone) was detected. First, the compound to be tested was prepared into a 10 mM stock solution in DMSO solvent, and the CYP3A4 inhibitor ketoconazole was prepared as 10 mM, 2.5 mM and 2.5 mM stock solutions in DMSO solvent. The test compound and ketoconazole were diluted to 400-fold final concentration (compound: 10 μM, ketoconazole: 2.5 μM) with acetonitrile.
NADPH cofactor (10 mL of potassium phosphate buffer added with 66.7 mg NADPH) at 4-fold final concentration and substrates were prepared with potassium phosphate buffer (0.1 M, pH=7.4), with CYP3A4 substrate midazolam at a final concentration of […] and CYP3A4 substrate testosterone at a final concentration of 20 μM.
A human liver microsome solution at a concentration of 0.2 mg/mL was prepared with potassium phosphate buffer on ice. A solution of the compound to be tested and a control inhibitor (control compound) solution at 2-fold final concentration were prepared with the human liver microsome solution on ice. The test wells were added with […] of the test compound solution and the control inhibitor solution respectively, and then added with […] of the substrate for duplication. A 96-well assay plate and a NADPH solution were incubated at 37° C. for 5 min, and 15 μL of pre-heated 8 mM NADPH solution was added to the assay plate to initiate the reaction. A CYP3A4 assay plate was pre-incubated at 37° C. for 5 min. The plate was added with 120 μL of acetonitrile to terminate the reaction, and after quenching, the plate was shaken on a shaker (IKA, MTS 2/4) for 10 min (600 rpm/min), and then centrifuged for 15 min. After centrifugation, the supernatant was collected, and added with purified water in a ratio of 1:1 to perform LC-MS/MS detection. A ratio of a peak area of compound to a peak area of internal standard was obtained, and the peak area ratio of the compound was compared with the peak area ratio of the control inhibitor to calculate the inhibition rate.

[3] = target: KRAS G12C-SOS1 (Homo sapiens (Human), UniProt Q07889); experiment: Inhibition test on KRAS G12C-SOS1 activity (Transcreener GDP-FI); format: biochemical
Sequence of KRAS G12C-SOS1 (Q07889 564-1049 limits assumed): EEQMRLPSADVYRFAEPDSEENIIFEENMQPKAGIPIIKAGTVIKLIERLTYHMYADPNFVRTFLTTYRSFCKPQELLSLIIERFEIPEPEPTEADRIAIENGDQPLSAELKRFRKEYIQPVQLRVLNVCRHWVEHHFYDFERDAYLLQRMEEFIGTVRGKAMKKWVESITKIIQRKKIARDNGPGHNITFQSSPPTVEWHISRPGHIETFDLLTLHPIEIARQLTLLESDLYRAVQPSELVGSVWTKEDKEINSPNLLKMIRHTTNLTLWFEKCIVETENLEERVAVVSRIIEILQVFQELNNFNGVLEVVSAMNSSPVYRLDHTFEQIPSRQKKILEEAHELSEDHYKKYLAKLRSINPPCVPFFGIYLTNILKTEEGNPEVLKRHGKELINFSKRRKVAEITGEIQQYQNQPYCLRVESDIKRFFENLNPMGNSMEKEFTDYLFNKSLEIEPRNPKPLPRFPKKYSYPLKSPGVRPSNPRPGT
Procedure: The compound to be tested was prepared into a 10 mM stock solution with DMSO, and serially diluted using 1× test buffer (modified Tris buffer). The resulting compound solution was transferred to a 384-well plate, and the final content of DMSO was 0.25%, and an additional DMSO well without compound was set up as a high signal control.
1× test buffer (modified Tris buffer) was prepared. […] 5 μL of SOS1 and 5 μL of GTP were transferred to the 384-well plate, respectively.
GDP detection reagent was prepared using the test buffer. 10 μL of the detection reagent solution was transferred to the 384-well plate and incubated at room temperature for 2 h. After incubation, the plate was read on a multifunctional microplate reader (SpectraMax Paradigm) with an excitation wavelength of 580 nm and an emission wavelength of 620 nm. The fluorescence signal was read, and the inhibition rate was calculated as:
inhibition percentage=(high signal control−sample signal)/(high signal control−low signal control)×100, and IC50 values were calculated using Graphpad 5 software.

[4] = test system: H358 cells; experiment: Inhibition of 3D cell proliferation (3D CellTiter-Glo); format: cell-based; conditions: Homo sapiens, NCI-H358, 168 h, read-out: IC50 (nM), inhibition of 3D proliferation of H358 cells, 7 days
Procedure: H358 cells were seeded in a T75 culture flask and cultured in a RPMI 1640 medium containing 10% FBS for 2 days for subsequent experiments in which the cells would be cultured or seeded on a 384-well plate.
On day 1, the cells were seeded on the 384-well plate, with 40 μL of medium added per well and serially diluted compounds or DMSO added per well, and an additional well without seeded cells but with medium was set up as a blank control. After culture at 37° C., 5% CO2 for 7 days, the plate was added with 3D CellTiter-Glo reagent (Promega, Cat. No. G9683) on day 8, shaken at 320 rpm for 20 min, and left at room temperature for 2 h. Luminescence signals were read on a multifunctional microplate reader. Cell viability inhibition rate was calculated as:
Cell viability inhibition rate=(DMSO group−test compound)/(DMSO group−blank control group)×100%
(§1) IC50 values were calculated using Graphpad 5 software.

[5] = test system: ERK phosphorylation level in DLD-1 cells; experiment: Inhibition of ERK phosphorylation level in DLD-1 cells (intracellular western blot); format: cell-based; conditions: Homo sapiens
Procedure: Intracellular western blot quantitative analysis was used to detect the inhibitory level of compounds on ERK phosphorylation in DLD-1 cells.
DLD-1 cells (ATCC, CCL-221) were seeded in a T75 culture flask at 2.5×10^6 cells/flask and cultured in a RPMI 1640 medium containing 10% FBS for 2 days. On day 3, the cells were seeded on a 384-well plate, and cultured overnight at 37° C., 5% CO2. After overnight culture, the plate was added with serially diluted compounds (the final content of DMSO was 0.5%), the negative group was added with DMSO, and incubated in a 37° C., 5% CO2 incubator.
The cells were fixed, washed once with PBS, treated to disrupt membranes, and blocked at room temperature for 1 h. The blocking solution was removed. The plate was added with primary antibody (CST, Cat. No. #4370S), and incubated overnight at 4° C. The plate was washed 3 times with PBST (PBS solution added with 0.05% Tween-20) and soaked for 2 min each time. The plate was added with secondary antibody (LI-COR, Cat. No. 926-32211) and incubated at room temperature in the dark. The plate was washed 3 times with PBST and soaked for 2 min each time. The plate was centrifuged at 1000 rpm for 1 min, scanned on a two-color infrared laser imaging system (Odyssey® CLX) to read the signal.
Relative signal=800-channel signal values/700-channel signal values.
Relative expression level of ERK phosphorylation=(test compound−control compound I)/(DMSO group−control compound I)
as §1

[6] = pH 7.4, probe midazolam, substrate midazolam, read-out: CYP inhibition rate (%) CYP3A4 (midazolam)
[7] = pH 7.4, probe testosterone, substrate testosterone, read-out: CYP inhibition rate (%) CYP3A4 (testosterone)

Row | Compound | fraction unbound at 5 h, 1 µM [1] | inhibition at 5 min, 10 µM [2, 6] [%] | inhibition at 5 min, 10 µM [2, 7] [%] | IC50 [3] [nM] | IC50 [4] [nM] | IC50 [5] [nM]
1 | Cc1nc(N[C@H](C)c2cccc(S(=O)(=O)C(F)F)c2C)c2cn(C3(CF)CC3)c(=O)cc2n1 [Compound I-1, (R)-4-((1-(3-((difluoromethyl)sulfonyl)-2-methylphenyl)ethyl)amino)-6-(1-(fluoromethyl)cyclopropyl)-2-methylpyrido[4,3-d]pyrimidin-7(6H)-one] | 0.054 | 17.8 | 0 | 59 | 26 | 102
2 | Cc1nc(N[C@H](C)c2cccc(S(=O)(=O)C(F)(F)F)c2F)c2cn(C3(CF)CC3)c(=O)cc2n1 [Compound I-2, (R)-4-((1-(2-fluoro-3-((trifluoromethyl)sulfonyl)phenyl)ethyl)amino)-6-(1-(fluoromethyl)cyclopropyl)-2-methylpyrido[4,3-d]pyrimidin-7(6H)-one] | 0.028 | 10.8 | 0 | 102 | 13.9 | 58
